Source: US9468670B2, “Melatonin-based treatment and diagnosis of bile duct disease” (Texas A&M University System, priority 2011, dated 2016)

How the values were obtained:
AANAT = assay: Expression of AANAT in liver sections, cholangiocytes, pineal gland and small intestine (immunohistochemistry, real-time PCR); type: in vivo, rat
Procedure: Male Fischer 344 rats (150-175 gm) were purchased from Charles River Laboratories (Wilmington, Mass.) and housed at 22° C. with 12:12 hr light/dark cycles. The animals had free access to standard chow and drinking water. […] Animal experiments were performed in accordance with a protocol approved by the Scott & White and Texas A&M Health Science Center IACUC. In separate experiments, normal rats treated with Vivo-Morpholino sequences of AANAT (5'-[…] NO:1), to reduce the biliary expression of AANAT) or Morpholino mismatched (5'-[…] NO:2)) (Gene Tools LCC) (1 mg/Kg BW/day) for 1 week via an implanted portal vein catheter. Serum, liver tissue, cholangiocytes, kidney, spleen, small intestine, stomach and heart were collected. Since our goal was to knock-down AANAT expression in the liver without inhibiting AANAT expression in other organs, we used a lower dose (1 mg/Kg/day) of Vivo-Morpholino than that described in the original study (3.0 mg/kg/day (Arora et al., 2002). This approach minimizes the amount of Vivo-Morpholino that circulates outside of the liver after slow infusion into the portal vein. See below for the surgical procedure for the implantation of the portal vein catheter by which AANAT Vivo-Morpholino or Morpholino mismatched was administered. The following was evaluated: (i) the expression of AANAT in liver sections and cholangiocytes from the selected groups of animals; and (ii) the effectiveness of the AANAT Vivo-Morpholino in lowering the expression of AANAT in cholangiocytes was determined. […] Data were expressed as relative mRNA levels ±SEM of the selected gene to glyceraldehyde-3-phosphate dehydrogenase (GAPDH) ratio. […]

[1] = tested on: large cholangiocyte lines; assay: PCNA expression and PKA, ERK1/2 phosphorylation (immunoblots) in immortalized large cholangiocytes; type: cell-based, mouse; conditions: melatonin 10^−11 M, 48 hours
Excerpt: The expression of MT1 and MT2 receptors in immortalized large cholangiocytes was first evaluated by immunofluorescence (Francis et al., 2008). Images were visualized using an Olympus IX-71 confocal microscope. For all immunoreactions, negative controls (with normal serum from the same species substituted for the primary antibody) were included. It was next evaluated by commercially available radioimmunoassay (RIA) kits ([…] et al., 1998; Kato et al., 1992; […] et al., 1999; […] et al., 2004) for cAMP levels ([…] et al., 1998; Kato et al., 1992; […] Shiu et al., 2010). […] […] et al., 1992; Ramirez-Rodriguez et al., 2009; […], 1999). […] Shiu et al., 2010) before evaluating by immunoblots (Francis et al., 2008) the expression of PCNA and the phosphorylation of PKA and EKR1/2.

CCA lines = assay: Proliferation by MTS assay in CCA lines and H69; type: cell-based, human; conditions: melatonin 10-7 to 10-11 M, 24-72 hours
Procedure: Methods: Melatonin immunoreactivity, the expression of melatonin biosynthesis enzymes and receptors were assessed by immunohistochemistry in tissue arrays from normal and CCA patients, and by qPCR and immunoblots in intra-hepatic and extra-hepatic CCA cell lines, and a normal cholangiocyte line (H69). Proliferation was evaluated in vitro by MTS assay in CCA lines and H69 after treatment with melatonin (10-7 to 10-11 M, 24-72 hours). In parallel, the expression of CLOCK after melatonin treatment (10-11 M for 48 hours) was assessed in CCA lines and normal cholangiocytes by qPCR.

CCA = assay: Sensitization of CCA to 5-fluorouracil and gemcitabine cytotoxicity in vitro; type: cell-based
cholangiocytes = assay: Biliary proliferation (PCNA, IBDM) and apoptosis (TUNEL) in Morpholino-treated rats; type: in vivo, rat; conditions: normal rats, 1 mg/Kg BW/day for 1 week via portal vein catheter
Procedure: In separate experiments, normal rats treated with Vivo-Morpholino sequences of AANAT (5′-[…] (SEQ ID NO:1), to reduce the biliary expression of AANAT) or Morpholino mismatched (5′-[…] (SEQ ID NO:2)) (Gene Tools LCC) (1 mg/Kg BW/day) for 1 week via an implanted portal vein catheter. Serum, liver tissue, cholangiocytes, kidney, spleen, small intestine, stomach and heart were collected. Since our goal was to knock-down AANAT expression in the liver without inhibiting AANAT expression in other organs, we used a lower dose (1 mg/Kg/day) of Vivo-Morpholino than that described in the original study (3.0 mg/kg/day (Arora et al., 2002). This approach minimizes the amount of Vivo-Morpholino that circulates outside of the liver after slow infusion into the portal vein. See below for the surgical procedure for the implantation of the portal vein catheter by which AANAT Vivo-Morpholino or Morpholino mismatched was administered.
Biliary proliferation was determined by measurement of the percentage of PCNA-positive cholangiocytes by immunohistochemistry, and intrahepatic bile duct mass (IBDM) by immunohistochemistry for CK-19 (Mancinelli et al., 2010). Biliary apoptosis was evaluated by semiquantitative terminal deoxynucleotidyltransferase biotin-dUTP nick-end labeling (TUNEL) kit (Chemicon International, Inc., Temecula, Calif.) (Mancinelli et al., 2010). IBDM was determined as the area occupied by CK-19 positive-bile duct/total area×100 (Mancinelli et al., 2010). The morphological changes/damage in liver, spleen, kidney, heart, stomach, and small intestine were evaluated from AANAT Vivo-Morpholino- or mismatch-treated rats by H&E staining. The serum levels of the transaminases, glutamate pyruvate transaminases (SGPT) and glutamic oxaloacetic transaminase (SGOT), alkaline phosphatase (ALP) and total bilirubin were evaluated using a Dimension RxL Max Integrated Chemistry system (Dade Behring Inc., Deerfield Ill.), Chemistry Department, Scott & White.

[2] = normal rats, 1 mg/Kg BW/day 1 week vs. controls

Row | Compound | Expression of AANAT in bile ducts (AANAT; BDL rats treated with melatonin (20 mg/L in tap water) 1 week) | PCNA expression and phosphorylation of PKA and ERK2 (but not ERK1) [1] | Decrease in CCA growth compared to normal cholangiocytes (CCA lines) [%] | Sensitization of CCA to the cytotoxic effects of 5-fluorouracil (5-FU) (CCA) [fold] | Sensitization of CCA to the cytotoxic effects of gemcitabine (CCA) [fold] | AANAT biliary expression (AANAT; [2]) | AANAT mRNA levels in pineal gland and small intestine (AANAT; [2]) | % IBDM (cholangiocytes) [%] | % PCNA-positive cholangiocytes (cholangiocytes) [%] | % apoptotic cholangiocytes (cholangiocytes) [%]
1 | COc1ccc2[nH]cc(CCNC(C)=O)c2c1 [melatonin] | increased | decreased | 65 | ~2 | ~2 | – | – | – | – | –
2 | AANAT Vivo-Morpholino: Vivo-Morpholino sequence of AANAT 5′-GTTCCCCAGCTTTGGAAGTGGTCCC (SEQ ID NO:1), to reduce the biliary expression of AANAT (all phosphorodiamidate morpholino (PMO); Vivo-Morpholino delivery moiety attached, position not given here, further chemistry not fully specified) | – | – | – | – | – | reduced | increased | 0.45 ± 0.10 | 8.98 ± 0.6 | <5
